Earlier results in patent US9145400B2, “Process for the preparation of form III of vilazodone hydrochloride” (Sandoz AG, priority 2013, dated 2015).
Like-named read-outs stand apart in the source and are kept apart here.

Experiments:
[1] = at room temperature
[2] = DVS, humidity of about 90%; takes up water only in minimal amounts; per WO 02/102794

Cl.N#Cc1ccc2[nH]cc(CCCCN3CCN(c4ccc5oc(C(N)=O)cc5c4)CC3)c2c1 [form III of Vilazodone hydrochloride, 5-(4-[4-(5-cyano-1H-indol-3-yl)butyl]piperazin-1-yl)benzofuran-2-carboxamide hydrochloride]
thermodynamic stability among polymorphs ([1]; per WO 02/102794 page 20, lines 23-26 and FIG. 27, listed as Vilazodone hydrochloride crystalline form III): thermodynamically most stable form
thermodynamic stability among polymorphs ([1]; per WO 02/102794 page 20, lines 23-26 and FIG. 27, hydrochloride): most thermodynamically stable polymorph
hygroscopicity (water uptake) [2]: non-hygroscopic
